Measurements published in publication PMC12632313 (bioRxiv, 2025).

Assay: Ex-vivo stability in mouse whole blood
Type: in vitro ADME
Details: male, C57BL/6, mouse

half-life: 3.9 ± 1.3 min
Substance: H-RPPGFSPFR-OH [Bradykinin (BK), Bradykinin]
